Laboratory results as given in patent US20220298174A1, “TETRACYCLIC COMPOUND, PREPARATION METHOD THEREFOR AND USE THEREOF” (SHANGHAI JEMINCARE PHARMACEUTICALS CO., LTD, priority 2019, published 2022).
Where two headings read alike, the source gives them in different places.

Columns and labels:
Format in all cases: cell-based
[1] = system: pERK (Thr202/Tyr204) in NCI-H358 cells expressing mutant RAS (G12C); experiment: Inhibition of RAS-mediated signal transduction: p-ERK ELISA normalized to Janus green
Procedure: NCI-H358 cells (ATCC accession No. CRL-5807) expressing mutant RAS (G12C) were cultured in an RPMI medium containing 10% fetal bovine serum, penicillin/streptomycin double antibody. The cells were plated on to a 96-well plate (Corning Cat. No. 3699) at 40,000 cells per well and left standing overnight to adhere to the bottom of the plate. The cells were treated with or without the compounds of the present disclosure (dimethylsulfoxide, DMSO), with a final DMSO concentration of 0.5% ensured. After 2 hours of treatment, the medium was removed, and 4% paraformaldehyde (Beyotime Cat. No. E672002-0100) was added. The resulting mixture was left standing for 20 min. After being immobilized, the cells were washed with PBS and incubated with pre-cooled methanol for 10 min to permeabilize the cell membrane. Non-specific antibody binding was blocked by incubation for 1 h with 1× blocking buffer (Thermo Cat. No. 37520).
The ERK phosphorylation level was detected by enzyme-linked immunosorbent assay (ELISA). A phospho-ERK antibody (Cell Signal Technology Cat. No. 4370) was 1:400 diluted with 1× blocking solution containing 0.05% tween 20 and added to the 96-well plate for overnight incubation at 4° C. The plate was washed 5 times with PBS containing 0.05% tween 20. An HRP-conjugated secondary antibody (Thermo Cat. No. 31460) was 1:10,000 diluted with 1× blocking buffer containing 0.05% tween 20 and added to the 96-well plate for incubation for 2 h at room temperature. The plate was washed 5 times with PBS containing 0.05% Tween and incubated with TMB (Thermo Cat. No. 4816) at room temperature for 15 min. The reaction was terminated with 1 mol/L H2SO4, and the OD values were read at a wavelength of 450 nm using an EnVision (PerkinElmer).
The total number of cells per well was measured using the Janus green staining method. The 96-well plate after the detection of the ERK phosphorylation level was washed to colorlessness with PBS and incubated with 0.1% Janus green (Abcam Cat. No. ab111622) for 10 min. After washing with double distilled water, the plate was incubated with 0.1 mol/L HCl with shaking for 10 min. The OD values were read at a wavelength of 595 nm using an EnVision (PerkinElmer).
The signal values of pERK (Thr202/Tyr204) were normalized using the signal values of Janus green, and the inhibition percentages relative to the DMSO reference were calculated after treatment with the drugs. The percentage values were subjected to four-parameter dose response curve fitting to generate IC50 values.

[2] = system: NCI-H358 cells expressing KRAS-G12C; experiment: Cell proliferation assay (Cell Titer Glo), NCI-H358; details: Homo sapiens, 72 h, ATP content (Cell Titer Glo)
Procedure: (§1) The ability of the compounds of the present disclosure to inhibit the growth of KRAS-G12C-expressing cells was assessed by measuring cell viability and calculating GI50 values.
(§2) Tumor cell line NCI-H358 (ATCC accession No. CRL-5807) expressing KRAS-G12C was cultured in an RPMI medium supplemented with 10% fetal bovine serum and penicillin/streptomycin double antibody; tumor cell line MIA PaCa2 (ATCC CRL-1420) expressing KRAS-G12C was cultured in a DMEM medium supplemented with 10% fetal bovine serum, 2.5% horse serum and penicillin/streptomycin double antibody.
(§3) NCI-H358 and MIA-Paca2 cells were seeded on a black clear-bottom 384-well plate (PerkinElmer Cat. No. 6007460) at densities of 1000 and 800 cells, respectively, and allowed to adhere to the walls overnight (8-12 h). After the cells adhered to the walls, the diluted compounds of the present disclosure with a concentration that was 5 times that of the working solution (containing 0.1% dimethyl sulfoxide, namely DMSO, at the final concentration) was added to the experimental groups; the same dilution (containing 0.1% DMSO at the final concentration) as in the experimental groups was added to the control group. After 72 h, the amount of cell proliferation was measured by measuring ATP content using a Cell Titer Glo reagent (Promega Cat. No. G7572) according to the method described in the manuals. Steps are briefly as follows: the cell plate was taken out and equilibrated at normal temperature for 30 min; the Cell Titer Glo reagent with an equal volume to that of the culture was added; the culture plate was placed on a shaker for lysis for 2 min; the culture plate was left standing at normal temperature for 10 min; the optical signal values were read using a microplate reader EnVision (PerkinElmer).
(§4) The inhibition percentages were calculated from the data of the experimental groups relative to the DMSO group, and GI50 was calculated using the data processing software GraphPad by analyzing the inhibitory rates yielded by 9 dosing concentrations produced by 1:3 dilution of the compounds, with the results shown in Table 2.

[3] = system: MIA PaCa2 cells expressing KRAS-G12C; experiment: Cell proliferation assay (Cell Titer Glo), MIA PaCa2; details: Homo sapiens, MIA PaCa-2, 72 h, ATP content (Cell Titer Glo)
Procedure: as §1, §2, §3, §4

[4] = Homo sapiens, NCI-H358, 2 h, NCI-H358 cells, 2 hours of treatment, ELISA, read-out: p-ERK IC50 (NCI H358)
[5] = NCI-H358 cells, 2 hours of treatment, ELISA, read-out: p-ERK IC50 (NCI H358)

Compound	IC50 [1, 4] [µM]	GI50 [2] [nM]	GI50 [3] [nM]	IC50 ([1]; Homo sapiens, NCI-H358, 2 h, read-out: p-ERK IC50 (NCI H358, μM)) [µM]	IC50 [1, 5] [µM]
C=CC(=O)N1CCN2c3nc(=O)n(-c4c(C)ccnc4C(C)C)c4cc(-c5c(O)ccc(F)c5F)c(F)c(c34)OC[C@H]2C1 (atropisomer, axis not shown) [Compound 4A]	0.038	34	324		
C=CC(=O)N1CCN2c3nc(=O)n(-c4c(C)ccnc4C(C)C)c4cc(-c5c(C)ccc6[nH]ncc56)c(F)c(c34)OC[C@H]2C1 (atropisomer, axis not shown) [Compound 6A]	1.77				
C=CC(=O)N1CCN2c3nc(=O)n(-c4c(C)ccnc4C(C)C)c4nc(-c5c(O)cccc5F)c(F)c(c34)OC[C@H]2C1 (atropisomer, axis not shown) [Compound 7A]	0.196	133	629		
C=CC(=O)N1CCN2c3nc(=O)n(-c4c(C)ccnc4C(C)C)c4c(F)c(-c5c(O)cccc5F)nc(c34)OC[C@H]2C1 (atropisomer, axis not shown) [Compound 10A]	0.065	111	333		
C=CC(=O)N1CCN2c3nc(=O)n(-c4c(C)ccnc4C(C)C)c4cc(-c5c(N)c(Cl)cc(Cl)c5F)c(F)c(c34)OC[C@H]2C1 (atropisomer, axis not shown) [Compound 11A]	0.052	70	685		
C=CC(=O)N1CCN2c3nc(=O)n(-c4c(C)ccnc4C(C)C)c4c(F)c(-c5c(O)cccc5F)c(F)c(c34)OC[C@H]2C1 (atropisomer, axis not shown) [Compound 15A]	6.36	3430	4520		
C=CC(=O)N1C[C@@H]2COc3c(F)c(-c4c(O)cccc4F)nc4c3c(nc(=O)n4-c3c(C)ccnc3C(C)C)N2[C@@H](C)C1 (single isomer, unassigned) [Compound 8A]	0.26	350	304		
C=CC(=O)N1CCN(c2ncnc3c(F)c(-c4c(O)cccc4F)c(Cl)cc23)CC1 [ARS-1620]		510	1210	0.325	
C=CC(=O)N1CCN2c3nc(=O)n(-c4c(C)ccnc4C(C)C)c4cc(-c5c(O)cccc5F)c(F)c(c34)OC[C@@H]2C1 [Compound 1A]					0.61
C=CC(=O)N1CCN2c3nc(=O)n(-c4c(C)ccnc4C(C)C)c4cc(-c5c(O)cccc5F)c(F)c(c34)OC[C@@H]2C1 [Compound 1]					0.288
C=CC(=O)N1CCN2c3nc(=O)n(-c4c(C)ccnc4C(C)C)c4cc(-c5c(O)cccc5F)c(F)c(c34)OC[C@H]2C1 [Compound 2A]	0.053	29	48		
C=CC(=O)N1CCN2c3nc(=O)n(-c4c(C)ccnc4C(C)C)c4cc(-c5c(O)cccc5F)c(F)c(c34)OC[C@H]2C1 [Compound 2]					0.1
C=CC(=O)N1CCN2c3nc(=O)n(-c4c(C)ccnc4C(C)C)c4c(F)c(-c5c(O)cccc5F)nc(c34)OC[C@@H]2C1 [Compound 3]	0.647				
C=C(F)C(=O)N1CCN2c3nc(=O)n(-c4c(C)ccnc4C(C)C)c4cc(-c5c(O)cccc5F)c(F)c(c34)OC[C@H]2C1 [Compound 5A]	0.637				
C=CC(=O)N1CCN2c3nc(=O)n(-c4c(C)ccnc4C(C)C)c4cc(-c5c(N)cccc5F)c(F)c(c34)OC[C@H]2C1 [Compound 12A]	0.032	10	54		
C=CC(=O)N1CCN(c2nc(=O)n(-c3c(C)ccnc3C(C)C)c3c(F)c(-c4c(O)cccc4F)ncc23)[C@@H](C)C1 [Compound 13]	0.159	320	1270		
C=CC(=O)N1CCN2c3nc(=O)n(-c4c(C)ccnc4C(C)C)c4cc(-c5c(F)ccc6cc[nH]c(=O)c56)c(F)c(c34)OC[C@H]2C1 [Compound 14A]	> 10				
